Reference: patent publication US10174060B2, “Process for purifying monooctylin trichloride” (CHEMTURA CORPORATION, priority 2014, dated 2019)

Assays:
[1] = cited from earlier work
[2] = Extraction of mono-n-octyltin trichloride from organic phase into aqueous aluminum chloride phase, dependence on chloride concentration (Example 4); format: physicochemical; conditions: stepwise dilution with deionized water
Procedure: A mixture was prepared, consisting by weight of 55.7% mono-n-octyltin trichloride, 10.7% di-n-butyl ether, 26.2% n-heptane, 7.3% AlCl3. 10 g of this mixture were transferred into a graduated glass cylinder.
Portions of deionized water were added stepwise to the system, and the volume changes of organic and aqueous phase were noted. Volume decrease of the organic phase indicates extraction of monooctyltin into the aqueous phase.

[3] = Extraction of mono-n-octyltin trichloride from organic phase into aqueous hydrochloric acid phase, dependence on chloride concentration (Example 5); format: physicochemical; conditions: stepwise dilution with deionized water
Procedure: 20.3 g of mono-n-octyltin trichloride, 3.9 g of di-n-butyl ether and 9.5 g of n-heptane were mixed to give of clear and homogeneous solution. 8.6 g (7.4 mL) of a 32% aqueous HCl solution were added. The mixture was stirred for ca. 10 minutes, and then transferred into a graduated glass cylinder. 2 phases appeared; they were allowed to settle.
Portions of deionized water were added stepwise to the system, and the volume changes of organic and aqueous phases were noted. Volume decrease of the organic phase indicates extraction of monooctyltin into the aqueous phase.

[4] = Extraction of mono-n-octyltin trichloride into aqueous aluminum chloride phase, dependence on temperature (Example 6); format: physicochemical; conditions: 30 minutes settling, 20 g mixture (18.5 mL) plus 8.4 g deionized water
Procedure: A mixture was prepared, consisting by weight of 55.7% mono-n-octyltin trichloride, 10.7% di-n-butyl ether, 26.2% n-heptane, 7.3% AlCl3. To 20 g of this mixture (having a volume of 18.5 mL), 8.4 g of deionized water were added under stirring, and the resulting mixture was placed into a graduated glass cylinder.
The temperature in the glass cylinder was adjusted to 20° C., and the phases were allowed to settle and separate for 30 minutes. The resulting volume of the organic phase was 8 mL.
Subsequently, the temperature in the glass cylinder was adjusted to 40° C., and the phases were allowed to settle and separate for 30 minutes. The resulting volume of the organic phase was 10 mL.
Subsequently, the temperature in the glass cylinder was adjusted to 60° C., and the phases were allowed to settle and separate for 30 minutes. The resulting volume of the organic phase was 14 mL.

[5] = Extraction of mono-n-octyltin trichloride with aqueous sodium chloride phase (Example 7); format: physicochemical; conditions: 16 mL organic mixture, 2.5 g saturated NaCl solution plus 5 g deionized water, 45° C.
Procedure: 10.15 g of mono-n-octyltin trichloride, 1.95 g of di-n-butyl ether and 4.75 g of n-heptane were mixed to give of clear and homogeneous solution. […] 2.5 g of a saturated NaCl solution was were added. The mixture was stirred for ca. 10 minutes, and then transferred into a graduated glass cylinder. Phase separation could not be observed, because a suspension had formed. When further 5 g of deionized water were added and the mixture was heated to 45° C., 2 phases appeared. When they had settled, it became visible, that the volume of the organic phase was reduced from 16 mL to ca. 8 mL, indicating extraction of monooctyltin trichloride into the aqueous phase. Upon cooling to room temperature, the lower aqueous phase solidified.

Structure (SMILES) | solubility in water [1] | aqueous aluminum chloride concentration at which extraction becomes particularly efficient [2] | HCl concentration at which extraction becomes particularly efficient [3] | volume of the organic phase ([4]; 20° C.) | volume of the organic phase ([4]; 40° C.) | volume of the organic phase ([4]; 60° C.) | volume of the organic phase after extraction [5]
CCC[CH2][Sn]([Cl])([Cl])[Cl] [monobutyltin trichloride] | miscible | – | – | – | – | – | –
CCCCCCC[CH2][Sn]([Cl])([Cl])[CH2]CCCCCCC [dioctyltin dichloride] | practically insoluble | – | – | – | – | – | –
CCCCCCC[CH2][Sn]([Cl])([CH2]CCCCCCC)[CH2]CCCCCCC [trioctyltin chloride] | practically insoluble | – | – | – | – | – | –
CCCCCCC[CH2][Sn]([Cl])([Cl])[Cl] [mono-n-octyltin trichloride] | practically insoluble | ≤ 17% | approx. 16% | 8 mL | 10 mL | 14 mL | ca. 8 mL
